In patent publication US8314215B2, “Mild chemically cleavable linker system” (The Board of Trustees of the Leland Stanford Junior …, priority 2006, dated 2012):

Key:
Liver carboxylesterase 4 = target: T1, Liver carboxylesterase 4 (Mus musculus, UniProt Q91WU0); experiment: LC/MS/MS identification of proteins from mouse liver extracts labeled with MTS-I-49; type: biochemical
T1 construct: from tissue; host or cells: mouse liver extract
T1 sequence (Q91WU0 18-561): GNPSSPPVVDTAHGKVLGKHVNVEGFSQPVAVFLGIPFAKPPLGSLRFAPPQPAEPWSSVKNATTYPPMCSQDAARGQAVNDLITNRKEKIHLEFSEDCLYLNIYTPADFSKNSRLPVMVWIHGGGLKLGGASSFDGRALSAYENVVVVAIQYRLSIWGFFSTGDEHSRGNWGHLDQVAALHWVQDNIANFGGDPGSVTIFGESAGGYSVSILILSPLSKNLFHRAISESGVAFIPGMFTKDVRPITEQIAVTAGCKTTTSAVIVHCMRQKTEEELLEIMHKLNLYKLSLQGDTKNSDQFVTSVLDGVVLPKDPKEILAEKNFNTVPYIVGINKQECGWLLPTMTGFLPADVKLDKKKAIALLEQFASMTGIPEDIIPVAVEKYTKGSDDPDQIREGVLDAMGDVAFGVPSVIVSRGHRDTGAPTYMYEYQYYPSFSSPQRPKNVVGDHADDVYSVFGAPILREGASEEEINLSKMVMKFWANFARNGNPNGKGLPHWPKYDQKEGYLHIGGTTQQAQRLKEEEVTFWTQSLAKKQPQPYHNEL
Text: (§1) (1991) Irreversible inhibition of serine proteases by peptide derivatives of (alpha-aminoalkyl)phosphonate diphenyl esters. Biochemistry 30, 485-493). However, it has not been used for any proteomic applications. We used MTS-I-49 to label mouse liver extracts and analyze the labeled sample by both SDS-PAGE (FIG. 5B) and by direct chemical cleavage or on bead digestion.
(§2) After enrichment on immobilized avidin, each of the three labeled proteomes (FIG. 5b) was divided into two aliquots. One was prepared for LC-MS/MS analysis by “on bead” digestion, while the other was chemically eluted and digested “in solution.” Proteins identified in each tissue lysate are listed with their accession number and theoretical molecular weight (MW). To compare both approaches, the number of identified peptides and percentage of amino acid sequence coverage is listed for each protein.
(§3) Proteins in the above Table were identified by LC/MS/MS analysis of on bead digested or chemically eluted proteins from mouse liver extracts labeled with MTS-I-49. […] BLAST database searching identified it as liver carboxylesterase 4. A number of additional endogenously biotinylated proteins were identified in the on-bead digested sample.

[1] = target: T2, propionyl-Coenzyme A carboxylase (Mus musculus, UniProt Q91ZA3); experiment: as above; type: biochemical
T2 construct: from tissue; host or cells: mouse liver extract
T2 sequence (Q91ZA3 49-724): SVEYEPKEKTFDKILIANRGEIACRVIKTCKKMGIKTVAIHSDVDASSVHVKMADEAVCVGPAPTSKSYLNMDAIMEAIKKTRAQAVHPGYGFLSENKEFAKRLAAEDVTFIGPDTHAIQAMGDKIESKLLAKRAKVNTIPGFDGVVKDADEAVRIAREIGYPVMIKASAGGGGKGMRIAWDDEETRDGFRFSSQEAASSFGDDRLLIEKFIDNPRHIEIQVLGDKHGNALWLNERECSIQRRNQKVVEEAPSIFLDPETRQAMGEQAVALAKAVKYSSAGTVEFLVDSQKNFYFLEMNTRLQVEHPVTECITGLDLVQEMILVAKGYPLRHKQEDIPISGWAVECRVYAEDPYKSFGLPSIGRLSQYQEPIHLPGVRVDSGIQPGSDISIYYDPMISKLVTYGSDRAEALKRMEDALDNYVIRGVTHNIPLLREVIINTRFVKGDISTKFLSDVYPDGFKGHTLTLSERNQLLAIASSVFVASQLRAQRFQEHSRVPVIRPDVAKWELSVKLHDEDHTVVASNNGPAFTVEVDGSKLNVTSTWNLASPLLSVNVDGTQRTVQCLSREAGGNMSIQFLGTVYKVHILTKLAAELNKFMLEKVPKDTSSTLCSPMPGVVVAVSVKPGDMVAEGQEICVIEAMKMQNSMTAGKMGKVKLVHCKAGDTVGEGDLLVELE
T2 sequence (Q99MN9 29-541 partner): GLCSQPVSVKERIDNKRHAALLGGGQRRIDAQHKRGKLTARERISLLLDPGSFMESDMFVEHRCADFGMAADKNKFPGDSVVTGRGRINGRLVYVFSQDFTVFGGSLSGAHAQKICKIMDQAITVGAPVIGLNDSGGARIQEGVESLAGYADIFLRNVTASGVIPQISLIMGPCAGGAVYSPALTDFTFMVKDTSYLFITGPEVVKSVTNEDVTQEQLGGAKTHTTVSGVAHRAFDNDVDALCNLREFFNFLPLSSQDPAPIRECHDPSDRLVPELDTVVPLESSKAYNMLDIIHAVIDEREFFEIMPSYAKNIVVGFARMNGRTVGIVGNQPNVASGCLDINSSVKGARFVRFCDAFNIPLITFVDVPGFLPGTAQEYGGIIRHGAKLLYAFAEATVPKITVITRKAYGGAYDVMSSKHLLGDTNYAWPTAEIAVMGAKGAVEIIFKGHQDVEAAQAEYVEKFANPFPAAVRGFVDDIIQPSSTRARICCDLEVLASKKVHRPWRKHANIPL
Text: as §1, §2, §3

[2] = Liver carboxylesterase 4, chemically eluted, digested in solution
[3] = Liver carboxylesterase 4, on bead digestion
[4] = chemically eluted, digested in solution

SMILES: C[C@H](NC(=O)c1ccc(N=Nc2cc(CCNC(=O)CCCC[C@@H]3SC[C@@H]4NC(=O)N[C@@H]43)ccc2O)cc1)C(=O)N[C@@H](C)C(=O)NC(Cc1ccccc1)P(=O)(Oc1ccccc1)Oc1ccccc1 (stereo partly drawn) [MTS-I-49]
- Chemical Cleavage, amino acid sequence coverage (Liver carboxylesterase 4; [2]): 38%
- Chemical Cleavage, number of identified peptides (Liver carboxylesterase 4; [2]): 14
- On Bead Digestion, amino acid sequence coverage (Liver carboxylesterase 4; [3]): 51%
- On Bead Digestion, number of identified peptides (Liver carboxylesterase 4; [3]): 20
- target identification after chemical cleavage (Liver carboxylesterase 4; mouse liver extracts, hypothetical protein identified by BLAST as liver carboxylesterase 4): primary probe target
- Chemical Cleavage, amino acid sequence coverage [1, 4]: 8%
- Chemical Cleavage, number of identified peptides [1, 4]: 3
- On Bead Digestion, amino acid sequence coverage ([1]; on bead digestion): 45%
- On Bead Digestion, number of identified peptides ([1]; on bead digestion): 22
